Reference: ChEMBL document CHEMBL1153816, “Novel N-substituted 4-hydrazino piperidine derivative as a dipeptidyl peptidase IV inhibitor” (Bioorg Med Chem Lett, 2009)
pIC50: −log10 of the molar value. Calls of active or inactive are those of the source. The calls are words filed in the database; no cut-off is given here.

Tested on: Rattus norvegicus
Experiment: Antidiabetic activity in ZDF rat diabetic model assessed as increase in insulin release at 44 mg/kg, po administered BID for 6 weeks by sandwich ELISA
Format: functional, organism-based
Design: dose 44 mg/kg

Row | Compound | Activity
1 | N#C[C@@H]1CSCN1C(=O)CN(N)C1CCN(CC(=O)Nc2ccc(Cl)cn2)CC1 | Active

Tested on: Rattus norvegicus
Experiment: Inhibition of DPP4 in n5-STZ rat at 22 mg/kg, po administered as single dose after 4 hrs relative to vehicle treated control

Row | Compound | inhibition in vivo at 22 mg/kg [%]
2 | N#C[C@@H]1CSCN1C(=O)CN(N)C1CCN(CC(=O)Nc2ccc(Cl)cn2)CC1 | 39.8

Tested on: Rattus norvegicus
Experiment: Antidiabetic activity in n5-STZ rat diabetic model assessed as decrease in glucose excursion at 44 mg/kg, po administered as single dose by OGTT

Row | Compound | Activity
3 | N#C[C@@H]1CSCN1C(=O)CN(N)C1CCN(CC(=O)Nc2ccc(Cl)cn2)CC1 | Active

Tested on: Rattus norvegicus
Experiment: Antidiabetic activity in n5-STZ rat diabetic model assessed as stimulation of insulin response at 44 mg/kg, po administered as single dose by sandwich ELISA

Row | Compound | Activity
4 | N#C[C@@H]1CSCN1C(=O)CN(N)C1CCN(CC(=O)Nc2ccc(Cl)cn2)CC1 | Active

Tested on: Rattus norvegicus
Experiment: Antidiabetic activity in n5-STZ rat diabetic model assessed as decrease in glucose AUC at 44 mg/kg, po administered as single dose by OGTT

Row | Compound | Activity
5 | N#C[C@@H]1CSCN1C(=O)CN(N)C1CCN(CC(=O)Nc2ccc(Cl)cn2)CC1 | Active

Target: Dipeptidyl peptidase 4 (Sus scrofa, UniProt P22411)
Sequence (P22411 whole entry): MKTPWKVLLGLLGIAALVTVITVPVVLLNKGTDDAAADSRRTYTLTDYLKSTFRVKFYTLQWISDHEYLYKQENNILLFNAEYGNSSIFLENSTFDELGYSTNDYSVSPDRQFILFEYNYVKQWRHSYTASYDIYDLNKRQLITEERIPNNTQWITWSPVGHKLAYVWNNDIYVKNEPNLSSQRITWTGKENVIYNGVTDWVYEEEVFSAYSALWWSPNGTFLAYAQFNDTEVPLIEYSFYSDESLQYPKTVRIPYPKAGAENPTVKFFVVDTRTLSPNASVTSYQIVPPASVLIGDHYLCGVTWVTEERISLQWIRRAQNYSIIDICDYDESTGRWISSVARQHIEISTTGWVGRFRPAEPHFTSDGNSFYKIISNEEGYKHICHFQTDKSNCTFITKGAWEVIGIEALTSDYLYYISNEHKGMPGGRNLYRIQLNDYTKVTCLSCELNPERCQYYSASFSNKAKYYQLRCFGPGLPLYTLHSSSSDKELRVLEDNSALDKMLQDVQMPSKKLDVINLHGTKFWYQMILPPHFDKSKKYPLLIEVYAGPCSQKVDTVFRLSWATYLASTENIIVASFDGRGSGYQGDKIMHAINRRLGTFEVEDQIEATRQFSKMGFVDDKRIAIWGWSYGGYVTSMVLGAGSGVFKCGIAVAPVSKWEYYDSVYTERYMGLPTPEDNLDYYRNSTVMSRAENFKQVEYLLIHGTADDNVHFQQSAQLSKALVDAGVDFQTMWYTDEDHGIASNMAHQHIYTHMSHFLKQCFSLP
Experiment: Inhibition of pig kidney DPP4 by spectrophotometric method

Row | Compound | pIC50
6 | N#C[C@@H]1CSCN1C(=O)CN(N)C1CCN(CC(=O)NC2CC2)CC1 [listing 1 of 2 here] | 6.66
7 | N#C[C@@H]1CSCN1C(=O)CN(N)C1CCN(CC(=O)NCc2ccccc2F)CC1 | 6.29
8 | N#C[C@@H]1CSCN1C(=O)CN(N)C1CCNCC1 | 4.92
9 | COCCNC(=O)CN1CCC(N(N)CC(=O)N2CSC[C@H]2C#N)CC1 | 5.99
10 | N#C[C@@H]1CCCN1C(=O)CN(N)C1CCN(CC(=O)Nc2ccc(Cl)cn2)CC1 | 5.43
11 | CCNN(CC(=O)N1CSC[C@H]1C#N)C1CCN(CC(=O)Nc2ccc(Cl)cn2)CC1 | 6.31
12 | N#C[C@@H]1CSCN1C(=O)CN(N)C1CCN(C(=O)N2CCOCC2)CC1 | 6.10
13 | N#C[C@@H]1CSCN1C(=O)CN(N)C1CCN(CC(=O)Nc2ccc(F)c(Cl)c2)CC1 | 6.44
14 | N#C[C@@H]1CSCN1C(=O)CN(N)C1CCN(CC(=O)Nc2ccc(S(N)(=O)=O)cc2)CC1 [listing 1 of 2 here] | 7.05
15 | Cc1ccc(S(=O)(=O)N2CCC(N(N)CC(=O)N3CSC[C@H]3C#N)CC2)cc1 | 5.57
16 | N#C[C@@H]1CSCN1C(=O)CN(N)C1CCN(CC(=O)Nc2ccc(S(N)(=O)=O)cc2)CC1 [listing 2 of 2 here] | 7.01
17 | N#C[C@@H]1CSCN1C(=O)CN(N)C1CCN(CC(=O)Nc2ncccn2)CC1 | 6.84
18 | COC(=O)NN(CC(=O)N1CSC[C@H]1C#N)C1CCN(CC(=O)Nc2ccc(Cl)cn2)CC1 | 4.42
19 | CC(C)(C)C(=O)N1CCC(N(N)CC(=O)N2CSC[C@H]2C#N)CC1 | 5.38
20 | N#C[C@@H]1CSCN1C(=O)CN(N)C1CCN(Cc2ccc([N+](=O)[O-])cc2)CC1 | 6.16
21 | N#C[C@@H]1CSCN1C(=O)CN(N)C1CCN(CC(=O)Nc2ccc(C(F)(F)F)cc2)CC1 | 6.51
22 | N#C[C@@H]1CSCN1C(=O)CN(N)C1CCN(C(=O)c2cccc(Cl)c2Cl)CC1 | 5.75
23 | CC1CCC(C(=O)N2CCC(N(N)CC(=O)N3CSC[C@H]3C#N)CC2)CC1 (some centres not stated) | 6.06
24 | CCNN(CC(=O)N1CSC[C@H]1C#N)C1CCN(S(C)(=O)=O)CC1 | 5.43
25 | N#C[C@@H]1CSCN1C(=O)CN(N)C1CCN(CC(=O)NC2CC2)CC1 [listing 2 of 2 here] | 6.63
26 | N#C[C@@H]1CSCN1C(=O)CN(N)C1CCN(Cc2ccccc2)CC1 | 5.79
27 | N#Cc1ccc(NC(=O)CN2CCC(N(N)CC(=O)N3CSC[C@H]3C#N)CC2)nc1 [listing 2 of 2 here] | 6.96
28 | N#C[C@@H]1CSCN1C(=O)CN(N)C1CCN(CC(=O)NC2CCCCC2)CC1 | 6.30
29 | N#C[C@@H]1CSCN1C(=O)CN(N)C1CCN(COc2ccccc2)CC1 | 6.20

Now from value to compound:

Row | pIC50 | Compound
30 | 5.84 | N#C[C@@H]1CSCN1C(=O)CN(N)C1CCN(S(=O)(=O)c2ccc(Cl)cc2)CC1
31 | 6.73 | Cc1nc(NC(=O)CN2CCC(N(N)CC(=O)N3CSC[C@H]3C#N)CC2)sc1C
32 | 5.65 | N#C[C@@H]1CSCN1C(=O)CN(N)C1CCN(Cc2ccc(F)cc2)CC1
33 | 5.91 | CN(CCN)C(=O)N1CCC(N(N)CC(=O)N2CSC[C@H]2C#N)CC1
34 | 5.84 | CS(=O)(=O)N1CCC(N(N)CC(=O)N2CSC[C@H]2C#N)CC1
35 | 6.08 | N#C[C@@H]1CSCN1C(=O)CN(N)C1CCN(C(=O)CN2CCOCC2)CC1
36 | 6.62 | N#C[C@@H]1CSCN1C(=O)CN(N)C1CCN(CC(=O)Nc2ccc3c(c2)OCO3)CC1
37 | 6.87 | N#C[C@@H]1CSCN1C(=O)CN(N)C1CCN(CC(=O)Nc2nc3ccccc3s2)CC1
38 | 6.70 | N#Cc1ccc(NC(=O)CN2CCC(N(N)CC(=O)N3CSC[C@H]3C#N)CC2)cc1
39 | 5.81 | CC(=O)N1CCC(N(N)CC(=O)N2CSC[C@H]2C#N)CC1
40 | 6.28 | N#C[C@@H]1CSCN1C(=O)CN(N)C1CCN(CC(=O)NC23CC4CC(CC(C4)C2)C3)CC1
41 | 6.65 | N#C[C@@H]1CSCN1C(=O)CN(N)C1CCN(CC(=O)Nc2ncc(Br)s2)CC1
42 | 5.99 | N#Cc1cc(CN2CCC(N(N)CC(=O)N3CSC[C@H]3C#N)CC2)ccc1-c1ccccc1
43 | 6.89 | N#Cc1ccc(NC(=O)CN2CCC(N(N)CC(=O)N3CSC[C@H]3C#N)CC2)nc1 [listing 1 of 2 here]
44 | 5.18 | COc1ccc(S(=O)(=O)N2CCC(N(N)CC(=O)N3CSC[C@H]3C#N)CC2)cc1
45 | 6.33 | CC(C)OCCCNC(=O)CN1CCC(N(N)CC(=O)N2CSC[C@H]2C#N)CC1
46 | 5.32 | N#C[C@@H]1CSCN1C(=O)CN(N)C1CCN(Cc2cccnc2)CC1

Tested on: Rattus norvegicus
Experiment: Antidiabetic activity in ZDF rat diabetic model assessed as decrease in glucose excursion at 44 mg/kg, po administered BID for 6 weeks by OGTT
Format: functional, organism-based
Design: dose 44 mg/kg

Row | Compound | Activity
47 | N#C[C@@H]1CSCN1C(=O)CN(N)C1CCN(CC(=O)Nc2ccc(Cl)cn2)CC1 | Active
